Holding throughout (format): functional, cell-based
Assay [1] relates to Cortical neurone. Briefly: Induction of neurite outgrowth in Wistar rat Cortical neurons assessed as increase in neurite branching at <=10 pM incubated for 72 hrs by automated imaging based analysis.
The subject of assay [2] is Cortical neurone. In words: Induction of neurite outgrowth in Wistar rat Cortical neurons assessed as increase in neurite number at <=10 pM incubated for 72 hrs by automated imaging based analysis.
In assay [3] the test system is Cortical neurone. Briefly: Induction of neurite outgrowth in Wistar rat Cortical neurons assessed as increase in neurite length at <=10 pM incubated for 72 hrs by automated imaging based analysis.
Assay [4] addresses 5-hydroxytryptamine receptor 2B (Homo sapiens) (UniProt P41595). In words: Modulation of 5-HT2B receptor (unknown origin) assessed as modulation of 5-HT induced intracellular Ca2+ release by measuring maximal efficacy at 1 uM preincubated for 15 mins followed by 5-HT addition and measured by FLIPR analysis relative to control. To be noted: filed as modulator.
Assay [5] has as its target 5-hydroxytryptamine receptor 2A (Homo sapiens) (UniProt P28223). Briefly: Positive allosteric modulation of human 5-HT2A receptor stably expressed in CHO cells assessed as modulation of 5-HT induced intracellular Ca2+ release by measuring maximal efficacy at 1 uM preincubated for 15 mins followed by 5-HT addition and measured by FLIPR analysis relative to control. To be noted: filed as positive allosteric modulator.

The target of assay [6] is T1, 5-hydroxytryptamine receptor 2C (Homo sapiens) (UniProt P28335).
T1 sequence (whole entry): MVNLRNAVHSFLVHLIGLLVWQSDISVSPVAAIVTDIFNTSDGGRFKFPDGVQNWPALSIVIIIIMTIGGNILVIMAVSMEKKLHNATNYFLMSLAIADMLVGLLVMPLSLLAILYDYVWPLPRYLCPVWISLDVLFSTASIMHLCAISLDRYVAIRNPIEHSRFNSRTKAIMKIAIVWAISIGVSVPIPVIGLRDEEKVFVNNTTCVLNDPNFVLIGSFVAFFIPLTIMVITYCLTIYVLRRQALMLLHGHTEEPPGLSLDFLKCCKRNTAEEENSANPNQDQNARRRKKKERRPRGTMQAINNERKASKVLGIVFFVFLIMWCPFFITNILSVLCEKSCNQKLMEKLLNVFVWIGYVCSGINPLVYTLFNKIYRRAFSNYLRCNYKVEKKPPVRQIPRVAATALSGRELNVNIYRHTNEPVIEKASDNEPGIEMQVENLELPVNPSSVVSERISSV
Briefly: Positive allosteric modulation of human 5-HT2C receptor stably expressed in CHO cells assessed as modulation of 5-HT induced intracellular Ca2+ release by measuring maximal efficacy at 1 uM preincubated for 15 mins followed by 5-HT addition and measured by FLIPR analysis relative to control. To be noted: filed as positive allosteric modulator.

SMILES strings stand for the structures. The source made the active and inactive calls. The calls are words filed in the database; no cut-off is given here.

Sequence of 5-hydroxytryptamine receptor 2B (Homo sapiens) (P41595 whole entry): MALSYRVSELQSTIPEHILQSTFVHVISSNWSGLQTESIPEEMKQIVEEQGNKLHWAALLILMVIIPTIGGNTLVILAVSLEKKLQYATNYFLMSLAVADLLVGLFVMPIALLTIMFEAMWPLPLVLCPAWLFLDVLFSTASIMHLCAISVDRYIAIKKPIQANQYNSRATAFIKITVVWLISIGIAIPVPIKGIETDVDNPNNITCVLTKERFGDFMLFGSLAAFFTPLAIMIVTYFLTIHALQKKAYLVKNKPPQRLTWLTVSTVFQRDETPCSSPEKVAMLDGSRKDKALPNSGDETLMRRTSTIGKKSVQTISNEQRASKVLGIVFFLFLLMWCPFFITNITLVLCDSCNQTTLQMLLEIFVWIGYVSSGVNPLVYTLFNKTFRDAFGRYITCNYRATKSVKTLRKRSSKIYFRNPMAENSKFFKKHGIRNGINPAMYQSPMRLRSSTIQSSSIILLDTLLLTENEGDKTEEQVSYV
Sequence of 5-hydroxytryptamine receptor 2A (Homo sapiens) (P28223 whole entry): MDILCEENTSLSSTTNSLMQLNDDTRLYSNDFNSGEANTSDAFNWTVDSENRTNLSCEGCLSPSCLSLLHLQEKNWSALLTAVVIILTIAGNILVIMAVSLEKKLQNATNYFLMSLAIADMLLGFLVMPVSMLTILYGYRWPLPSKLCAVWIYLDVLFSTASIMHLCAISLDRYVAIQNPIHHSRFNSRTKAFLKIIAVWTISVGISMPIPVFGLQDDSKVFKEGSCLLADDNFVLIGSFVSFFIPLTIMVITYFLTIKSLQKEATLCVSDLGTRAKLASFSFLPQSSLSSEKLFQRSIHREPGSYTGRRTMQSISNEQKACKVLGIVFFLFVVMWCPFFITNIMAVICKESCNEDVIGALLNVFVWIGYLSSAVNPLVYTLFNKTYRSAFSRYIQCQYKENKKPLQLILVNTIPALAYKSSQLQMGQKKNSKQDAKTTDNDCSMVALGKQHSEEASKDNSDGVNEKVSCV

On to `COc1ccc2c3c([nH]c2c1)C[C@H]1CCCN1CC3`, for which the outcome in the assay on Cortical neurone [1], in the assay with Cortical neurone [2] and with Cortical neurone [3] was Active.

Regarding `COc1ccc2c3c([nH]c2c1)CCN1CCC[C@@H]1C3`, the result in the assay on Cortical neurone [1], in the assay with Cortical neurone [2] and with Cortical neurone [3] was Active.

Regarding `O=C(NC[C@H](O)CO)[C@@H]1C[C@H](c2ccccc2)CCN1`, in assay [4], the Emax (in general, the greatest response seen or fitted, relative to the assay's reference) came to 105%.

For the compound `CC(Cc1cnc2cc(F)ccn12)N(C)C` (stereo not drawn), in the assay on Cortical neurone [1], the result was Active. The outcome in the assay on Cortical neurone [2] and with Cortical neurone [3] was inactive.

Consider `COc1ccn2c(CC(C)N(C)C)ncc2c1` (stereo not drawn), for which the result in the assay with Cortical neurone [1], with Cortical neurone [2] and with Cortical neurone [3] was Active.

For the compound `COc1cccc2[nH]c3c(c12)C[C@H]1CCCN1CC3`, the result in the assay with Cortical neurone [1], with Cortical neurone [2] and in the assay on Cortical neurone [3] was Active.

Consider `COc1ccc2c3c([nH]c2c1)CCN1CCC[C@H]1C3`, for which the result with Cortical neurone [1], with Cortical neurone [2] and with Cortical neurone [3] was Active.

For `O=C(NC[C@H](O)CO)c1cc(-c2ccccc2)ccn1`, the maximal effect (Emax) in assay [4] came to 115%; in assay [5], 106%; in assay [6], 120%.

In the case of `O=C(CCCc1ccccc1)NC[C@H](O)CO`, the Emax amounted to 106% in assay [4], 97.8% in assay [5] and 124% in assay [6].

On to `COc1ccc2c3c([nH]c2c1)C[C@@H]1CCCN1CC3`, for which the outcome with Cortical neurone [1], with Cortical neurone [2] and in the assay on Cortical neurone [3] was Active.
